From US5827245A, “Transdermal therapeutic system comprising the active subtance 17-β-Estradiol (Anhydrous)” (LTS Lohmann Therapie-Systeme GmbH & Co. KG, priority 1992, dated 1998)

Assays:
[1] = Thermal stability / conversion of 17-β-estradiol semihydrate to the anhydrous form; format: physicochemical
Experimental: At room temperature and usual relative humidity of air (20 to 60% relative humidity), 17-β-estradiol is not present in one of the two known modifications (I and II) which are free from crystal water but as a semihydrate (Busetti a. Hospital, Acta Cryst. 1972, B28, 560). Due to the stratified structure of the crystal compound, which is stabilized by hydrogen bridges, and its diffusion density, the hydrate can be heated for a short period of time to temperatures of about 170° C. (Kuhnert-Brandstatter u. Winkler (1976) Scientia Pharmaceutica 44 (3), 177-190) while remaining undecomposed. However, by way of micronization, i.e. increasing the surface of the crystals, it is possible to quantitatively convert 17-β-estradiol semihydrate to its anhydrous form at as low a temperature as about 120° C. According to our own observations, conversion already occurs at about 90° C. where heating is slow (0.2 to 1 K/min) and particularly fine material is used.

[2] = short period of time; cited from earlier work

temperature of quantitative conversion to the anhydrous form ([1]; micronized): about 120 °C | temperature at which conversion already occurs ([1]; slow heating (0.2 to 1 K/min), particularly fine material, own observations): about 90 °C
Compound: C[C@]12CC[C@@H]3c4ccc(O)cc4CC[C@H]3[C@@H]1CC[C@@H]2O [17-β-estradiol semihydrate]
temperature to which the hydrate can be heated while remaining undecomposed [2]: about 170 °C
